Data: ChEMBL document CHEMBL4190307, “Design, synthesis and biological evaluation of novel coumarin-N-benzyl pyridinium hybrids as multi-target agents for the treatment of Alzheimer's disease” (Eur J Med Chem, 2017)
pIC50: −log10 of the molar value. The source made the active and inactive calls. The calls are words filed in the database; no cut-off is given here.

Columns and labels:
[1] = molecular target: Cholinesterase (Equus caballus, UniProt P81908); test: Inhibition of equine serum BuChE using S-butyrylthiocholine iodide as substrate preincubated for 6 mins followed by substrate addition measured up to 180 secs by Ellman's method
Chain of Cholinesterase (Equus caballus, UniProt P81908) (P81908 whole entry): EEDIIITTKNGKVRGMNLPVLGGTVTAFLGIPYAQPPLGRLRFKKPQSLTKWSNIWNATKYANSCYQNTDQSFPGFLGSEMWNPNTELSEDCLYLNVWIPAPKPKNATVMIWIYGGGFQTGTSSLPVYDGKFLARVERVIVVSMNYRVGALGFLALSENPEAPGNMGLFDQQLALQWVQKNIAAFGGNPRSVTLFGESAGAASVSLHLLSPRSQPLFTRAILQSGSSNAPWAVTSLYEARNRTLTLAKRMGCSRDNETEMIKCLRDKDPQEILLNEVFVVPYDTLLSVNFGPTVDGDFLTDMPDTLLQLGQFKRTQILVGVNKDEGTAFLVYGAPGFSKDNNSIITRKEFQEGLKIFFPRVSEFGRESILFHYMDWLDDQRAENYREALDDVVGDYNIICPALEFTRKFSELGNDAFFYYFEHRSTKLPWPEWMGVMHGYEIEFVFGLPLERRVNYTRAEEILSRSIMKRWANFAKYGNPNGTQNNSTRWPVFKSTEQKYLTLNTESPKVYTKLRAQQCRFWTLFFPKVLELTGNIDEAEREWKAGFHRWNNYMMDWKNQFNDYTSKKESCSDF

[2] = molecular target: Acetylcholinesterase (Electrophorus electricus, UniProt O42275); test: Inhibition of electric eel AChE using acetylthiocholine iodide as substrate preincubated for 6 mins followed by substrate addition measured up to 180 secs by Ellman's method
Chain of Acetylcholinesterase (Electrophorus electricus, UniProt O42275) (O42275 whole entry): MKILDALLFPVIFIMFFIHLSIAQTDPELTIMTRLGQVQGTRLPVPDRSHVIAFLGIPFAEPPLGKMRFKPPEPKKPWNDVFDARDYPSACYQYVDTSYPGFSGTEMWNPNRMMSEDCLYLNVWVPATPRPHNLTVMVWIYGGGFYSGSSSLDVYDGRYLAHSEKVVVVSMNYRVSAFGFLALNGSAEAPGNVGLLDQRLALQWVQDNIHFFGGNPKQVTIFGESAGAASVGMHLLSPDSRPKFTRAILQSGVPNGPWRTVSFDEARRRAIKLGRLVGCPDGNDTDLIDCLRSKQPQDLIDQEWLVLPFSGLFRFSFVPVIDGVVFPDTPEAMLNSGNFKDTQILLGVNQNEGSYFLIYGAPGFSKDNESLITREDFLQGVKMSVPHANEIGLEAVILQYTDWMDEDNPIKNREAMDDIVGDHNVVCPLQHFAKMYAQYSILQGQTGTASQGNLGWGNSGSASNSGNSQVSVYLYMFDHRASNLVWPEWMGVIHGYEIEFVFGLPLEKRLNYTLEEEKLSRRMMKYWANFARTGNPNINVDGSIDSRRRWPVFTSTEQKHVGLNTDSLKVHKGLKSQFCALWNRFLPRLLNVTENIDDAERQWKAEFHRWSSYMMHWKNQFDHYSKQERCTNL

[3] = species: Homo sapiens; test: Selectivity index, ratio of IC50 for recombinant human MAOA to IC50 for recombinant human MAOB
[4] = molecular target: Acetylcholinesterase (Homo sapiens, UniProt P22303); test: Inhibition of human AChE using acetylthiocholine iodide as substrate preincubated for 6 mins followed by substrate addition measured up to 180 secs by Ellman's method
Chain of Acetylcholinesterase (Homo sapiens, UniProt P22303) (P22303 whole entry): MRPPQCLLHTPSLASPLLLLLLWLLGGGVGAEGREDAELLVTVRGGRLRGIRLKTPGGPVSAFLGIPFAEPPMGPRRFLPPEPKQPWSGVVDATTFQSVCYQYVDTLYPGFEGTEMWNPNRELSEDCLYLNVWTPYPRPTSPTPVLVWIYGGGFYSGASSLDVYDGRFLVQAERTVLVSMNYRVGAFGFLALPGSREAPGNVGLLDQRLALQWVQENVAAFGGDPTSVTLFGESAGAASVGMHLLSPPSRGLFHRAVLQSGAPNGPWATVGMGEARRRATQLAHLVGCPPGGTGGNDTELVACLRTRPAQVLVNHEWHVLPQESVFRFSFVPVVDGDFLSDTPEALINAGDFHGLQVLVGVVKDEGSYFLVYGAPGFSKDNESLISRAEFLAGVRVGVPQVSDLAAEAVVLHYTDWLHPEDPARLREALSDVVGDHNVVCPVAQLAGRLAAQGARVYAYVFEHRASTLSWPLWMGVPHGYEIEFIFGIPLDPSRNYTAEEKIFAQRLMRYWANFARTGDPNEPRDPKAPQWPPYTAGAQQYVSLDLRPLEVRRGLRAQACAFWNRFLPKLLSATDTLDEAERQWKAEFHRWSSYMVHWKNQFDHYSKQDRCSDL

[5] = molecular target: Cholinesterase (Homo sapiens, UniProt P06276)
Chain of Cholinesterase (Homo sapiens, UniProt P06276) (P06276 whole entry): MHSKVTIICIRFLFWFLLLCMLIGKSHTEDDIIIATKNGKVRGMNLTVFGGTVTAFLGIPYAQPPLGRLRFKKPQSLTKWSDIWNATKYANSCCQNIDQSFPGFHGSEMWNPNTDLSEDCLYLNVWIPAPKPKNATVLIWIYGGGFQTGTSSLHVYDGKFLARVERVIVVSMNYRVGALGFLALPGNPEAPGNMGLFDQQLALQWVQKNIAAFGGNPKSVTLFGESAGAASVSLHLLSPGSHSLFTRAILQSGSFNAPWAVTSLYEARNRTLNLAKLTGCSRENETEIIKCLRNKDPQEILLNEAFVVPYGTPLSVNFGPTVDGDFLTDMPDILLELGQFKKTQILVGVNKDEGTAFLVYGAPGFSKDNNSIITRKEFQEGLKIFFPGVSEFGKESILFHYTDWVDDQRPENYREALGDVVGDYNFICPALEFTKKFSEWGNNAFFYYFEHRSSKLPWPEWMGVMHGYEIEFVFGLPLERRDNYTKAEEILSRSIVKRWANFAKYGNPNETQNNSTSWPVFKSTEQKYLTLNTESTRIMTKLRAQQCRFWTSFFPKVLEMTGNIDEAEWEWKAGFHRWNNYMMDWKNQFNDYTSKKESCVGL
Description: Inhibition of human serum BuChE using S-butyrylthiocholine iodide as substrate preincubated for 6 mins followed by substrate addition measured up to 180 secs by Ellman's method

[6] = Selectivity index, ratio of IC50 for equine serum BuChE to IC50 for electric eel AChE
[7] = molecular target: T1, Amine oxidase [flavin-containing] A (Homo sapiens, UniProt P21397); test: Inhibition of recombinant human MAOA at 10 uM using p-tyramine as substrate after 15 mins by resorufin dye-based fluorometric method relative to control; settings: 0.25 h
T1 sequence (P21397 whole entry): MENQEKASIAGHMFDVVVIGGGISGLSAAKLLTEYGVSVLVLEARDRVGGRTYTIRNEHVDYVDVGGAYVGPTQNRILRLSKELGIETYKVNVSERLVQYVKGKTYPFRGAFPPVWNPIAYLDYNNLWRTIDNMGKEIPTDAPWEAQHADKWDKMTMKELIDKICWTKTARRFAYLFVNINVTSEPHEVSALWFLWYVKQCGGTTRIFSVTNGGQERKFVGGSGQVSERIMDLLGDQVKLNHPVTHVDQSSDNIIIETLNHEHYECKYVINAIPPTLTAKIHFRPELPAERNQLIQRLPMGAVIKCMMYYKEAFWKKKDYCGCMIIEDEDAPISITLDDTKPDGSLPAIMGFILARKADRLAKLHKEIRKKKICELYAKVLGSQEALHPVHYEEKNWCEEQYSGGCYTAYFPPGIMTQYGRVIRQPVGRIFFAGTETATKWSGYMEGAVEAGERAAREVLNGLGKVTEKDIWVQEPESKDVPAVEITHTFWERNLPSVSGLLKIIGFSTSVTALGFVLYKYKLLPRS

[8] = test system: PC-12; test: Cytotoxicity against rat PC12 cells assessed as reduction in cell viability at 100 uM after 24 hrs by MTT assay relative to control; format: cell-based; settings: pc-12, 24 h
[9] = molecular target: Amyloid-beta precursor protein (Homo sapiens) (UniProt P05067); test: Inhibition of self-induced amyloid beta (1 to 42) (unknown origin) aggregation at 20 uM after 46 to 48 hrs by thioflavin T-based fluorescence assay relative to control
Chain of Amyloid-beta precursor protein (Homo sapiens) (P05067 whole entry): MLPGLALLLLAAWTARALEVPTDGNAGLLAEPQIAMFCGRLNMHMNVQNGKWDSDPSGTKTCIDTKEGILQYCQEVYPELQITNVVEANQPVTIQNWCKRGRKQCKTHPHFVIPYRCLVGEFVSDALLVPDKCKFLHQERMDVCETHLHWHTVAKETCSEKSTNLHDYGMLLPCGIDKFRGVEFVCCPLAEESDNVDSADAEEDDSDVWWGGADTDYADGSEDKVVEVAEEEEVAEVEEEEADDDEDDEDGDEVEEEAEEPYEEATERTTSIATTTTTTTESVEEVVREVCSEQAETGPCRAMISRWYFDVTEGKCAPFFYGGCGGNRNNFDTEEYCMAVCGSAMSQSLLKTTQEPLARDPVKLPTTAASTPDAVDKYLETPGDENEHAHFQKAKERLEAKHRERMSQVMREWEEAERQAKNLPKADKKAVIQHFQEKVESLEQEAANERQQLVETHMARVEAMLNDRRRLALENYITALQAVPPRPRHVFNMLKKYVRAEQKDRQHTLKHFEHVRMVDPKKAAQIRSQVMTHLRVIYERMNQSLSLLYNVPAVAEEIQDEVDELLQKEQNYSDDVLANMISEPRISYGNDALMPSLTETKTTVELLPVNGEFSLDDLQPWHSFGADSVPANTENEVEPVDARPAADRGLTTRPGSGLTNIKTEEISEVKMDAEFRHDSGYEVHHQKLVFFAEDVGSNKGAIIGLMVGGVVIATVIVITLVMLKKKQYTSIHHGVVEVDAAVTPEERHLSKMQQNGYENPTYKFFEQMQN

[10] = species: Homo sapiens; test: Selectivity index, ratio of IC50 for human serum BuChE to IC50 for human AChE
[11] = molecular target: T2, Amine oxidase [flavin-containing] B (Homo sapiens, UniProt P27338)
T2 sequence (P27338 whole entry): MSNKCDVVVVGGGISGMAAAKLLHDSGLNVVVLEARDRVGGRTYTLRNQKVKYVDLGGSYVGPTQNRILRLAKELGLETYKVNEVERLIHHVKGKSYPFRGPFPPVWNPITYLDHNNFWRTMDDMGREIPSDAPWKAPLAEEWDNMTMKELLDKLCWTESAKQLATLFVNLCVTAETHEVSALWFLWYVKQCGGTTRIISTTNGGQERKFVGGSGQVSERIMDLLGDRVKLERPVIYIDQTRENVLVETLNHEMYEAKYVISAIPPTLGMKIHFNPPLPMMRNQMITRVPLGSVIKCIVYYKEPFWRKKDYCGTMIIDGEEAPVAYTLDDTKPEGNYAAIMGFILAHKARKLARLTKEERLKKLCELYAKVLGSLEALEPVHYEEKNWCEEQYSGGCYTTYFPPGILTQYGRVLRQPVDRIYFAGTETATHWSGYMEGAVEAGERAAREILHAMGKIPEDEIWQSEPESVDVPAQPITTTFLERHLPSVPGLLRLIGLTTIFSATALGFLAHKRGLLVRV
Description: Inhibition of recombinant human MAOB using p-tyramine as substrate after 15 mins by Amplex Red dye-based fluorometric method

[12] = molecular target: T2, Amine oxidase [flavin-containing] B; test: Inhibition of recombinant human MAOB at 10 uM using p-tyramine as substrate after 15 mins by resorufin dye-based fluorometric method relative to control; settings: 0.25 h
[13] = molecular target: T1, Amine oxidase [flavin-containing] A; test: Inhibition of recombinant human MAOA using p-tyramine as substrate after 15 mins by Amplex Red dye-based fluorometric method
[14] = molecular target: Acetylcholinesterase (Electrophorus electricus) (UniProt O42275); test: Potency index, ratio of IC50 for donepezil to IC50 for test compound for inhibition of electric eel AChE using acetylthiocholine iodide as substrate preincubated for 6 mins followed by substrate addition measured up to 180 secs by Ellman's method
Chain of Acetylcholinesterase (Electrophorus electricus) (O42275 24-633 limits assumed): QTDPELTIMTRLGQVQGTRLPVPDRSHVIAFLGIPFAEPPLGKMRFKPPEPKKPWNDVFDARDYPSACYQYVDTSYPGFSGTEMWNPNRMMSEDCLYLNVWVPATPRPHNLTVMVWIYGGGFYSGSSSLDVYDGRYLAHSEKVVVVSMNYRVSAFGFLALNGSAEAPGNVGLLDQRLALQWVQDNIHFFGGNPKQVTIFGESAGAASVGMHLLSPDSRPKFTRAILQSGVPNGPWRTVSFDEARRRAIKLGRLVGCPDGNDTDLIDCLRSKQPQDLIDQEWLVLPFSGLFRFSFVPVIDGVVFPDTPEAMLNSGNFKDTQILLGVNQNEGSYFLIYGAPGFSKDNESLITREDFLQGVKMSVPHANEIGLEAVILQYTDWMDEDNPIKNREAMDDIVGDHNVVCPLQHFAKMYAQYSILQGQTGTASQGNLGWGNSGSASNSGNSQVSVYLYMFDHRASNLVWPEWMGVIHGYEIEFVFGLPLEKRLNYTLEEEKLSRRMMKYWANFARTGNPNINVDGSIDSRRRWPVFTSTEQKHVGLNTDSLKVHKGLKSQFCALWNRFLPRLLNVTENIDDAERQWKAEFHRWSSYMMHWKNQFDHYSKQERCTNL

[15] = molecular target: Acetylcholinesterase (Electrophorus electricus) (UniProt O42275); test: Mixed type inhibition of electric eel AChE up to 80 nM using acetylthiocholine iodide as substrate preincubated for 6 mins followed by substrate addition measured up to 180 secs by Lineweaver-burk plot method
[16] = molecular target: T2, Amine oxidase [flavin-containing] B; test: Competitive inhibition of recombinant human MAOB up to 3 uM using p-tyramine as substrate after 15 mins by Lineweaver-burk plot method; settings: 0.25 h
[17] = molecular target: T2, Amine oxidase [flavin-containing] B; test: Reversible inhibition of recombinant human MAO-B assessed as enzyme activity recovery at 100 times IC50 using p-tyramine as substrate preincubated for 30 mins followed by 100 fold compound dilution by Amplex Red dye-based fluorometric method relative to control; set-up: scale not given: the % may be the effect or the level left
[18] = molecular target: T2, Amine oxidase [flavin-containing] B; test: Reversible inhibition of recombinant human MAO-B assessed as enzyme activity recovery at 10 times IC50 using p-tyramine as substrate preincubated for 30 mins followed by 100 fold compound dilution by Amplex Red dye-based fluorometric method relative to control; set-up: scale not given: the % may be the effect or the level left

Row | SMILES | pIC50 [1] | pIC50 [2] | Ratio IC50 [3] | pIC50 [4] | pIC50 [5] | Ratio IC50 [6] | inhibition at 10 µM [7] | Activity [8] | inhibition [9] | Ratio IC50 [10] | pIC50 [11] | inhibition at 10 µM [12] | pIC50 [13] | Ratio IC50 [14] | inhibition [15] | inhibition (INH) [16] | Activity [17] | Activity [18]
1 | Cc1cc(=O)oc2cc(O)ccc12 [HYMECROMONE] | < 4.00 | < 4.00 |  |  |  |  |  |  |  |  |  |  |  |  |  |  |  | 
2 | Cc1cc(=O)oc2cc(OCc3cc[n+](Cc4ccccc4Br)cc3)ccc12.[Br-] | 6.32 | 7.44 | > 2.5 | 7.11 | 5.08 | 13.2 | 15.1% | 97.6% | 63.7% | 106 | 5.40 |  |  |  |  |  |  | 
3 | Cc1cc(=O)oc2cc(OCc3cc[n+](Cc4ccccc4)cc3)ccc12.[Br-] | 5.37 | 6.42 | 6.92 | 6.45 |  | 11.2 | 5.04% | 97.5% | 39.3% | > 28.4 |  | 34.9% |  |  |  |  |  | 
4 | Cc1cc(=O)oc2cc(OCc3cc[n+](Cc4ccccc4F)cc3)ccc12.[Br-] | 5.79 | 7.53 | > 2.37 | 7.19 |  | 55.6 | 11.5% | 100.8% | 53.7% | > 153 | 5.38 |  |  |  |  |  |  | 
5 | Cc1cc(=O)oc2cc(OCc3cc[n+](Cc4ccc(Br)cc4)cc3)ccc12.[Br-] | 5.31 | 6.92 | > 2.58 | 6.66 |  | 41.1 | 29.9% | 98.5% | 67.6% | > 41.1 | 5.41 |  |  |  |  |  |  | 
6 | Cc1cc(=O)oc2cc(OCc3cc[n+](Cc4ccc([N+](=O)[O-])cc4)cc3)ccc12.[Br-] |  | 5.93 | > 1.45 | 5.97 |  | > 8.4 | 18.6% | 99.5% | 37.7% | > 9.3 | 5.16 |  |  |  |  |  |  | 
7 | Cc1cc(=O)oc2cc(OCc3cc[n+](Cc4ccc(F)cc4)cc3)ccc12.[Br-] | 5.53 | 7.54 | 0.46 | 7.43 |  | 101 |  | 94.8% | 49.1% | > 271 | 5.00 |  | 5.34 |  |  |  |  | 
8 | Cc1cc(=O)oc2cc(OCc3cc[n+](Cc4cccc(F)c4)cc3)ccc12.[Br-] | 5.56 | 7.59 | > 3.48 | 7.38 |  | 106 | 34.3% | 99.6% | 50.8% | > 240 | 5.54 |  |  | 1.9 |  |  |  | 
9 | Cc1cc(=O)oc2cc(OCc3cc[n+](Cc4cccc([N+](=O)[O-])c4)cc3)ccc12.[Br-] | 5.36 | 7.42 |  | 6.64 |  |  |  | 98.4% | 42.8% |  |  |  |  |  |  |  |  | 
10 | Cc1ccc(C[n+]2ccc(COc3ccc4c(C)cc(=O)oc4c3)cc2)cc1.[Br-] | 5.12 | 6.87 | > 2.56 | 6.60 |  | 56.3 | 9.05% | 99.4% | 58.5% | > 40 | 5.41 |  |  |  |  |  |  | 
11 | Cc1cc(=O)oc2cc(OCc3cc[n+](Cc4cccc(Br)c4)cc3)ccc12.[Br-] | 5.36 | 7.20 | > 4.56 | 6.89 |  | 69.8 | 44.6% | 96.8% | 62.7% | > 77.8 | 5.66 |  |  |  |  |  |  | 
12 | Cc1cccc(C[n+]2ccc(COc3ccc4c(C)cc(=O)oc4c3)cc2)c1.[Br-] | 5.63 | 7.43 | > 6.37 | 7.08 |  | 62.2 | 14.8% | 101.5% | 62.1% | > 120 | 5.80 |  |  |  | Active | Active | 47% | 86%
13 | Cc1ccccc1C[n+]1ccc(COc2ccc3c(C)cc(=O)oc3c2)cc1.[Br-] | 5.79 | 7.60 | > 3.16 | 7.45 |  | 64.7 | 13.9% | 97.1% | 55.2% | > 282 | 5.50 |  |  | 1.9 |  |  |  | 
